Data reported in PubChem BioAssay (NCI).
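Compound exposure: 48 hours, 5 concentrations, 96-well plates. GI50: concentration for 50% inhibition of growth. TGI is the concentration that stops growth completely.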

What was measured:
Experiment in all cases: NCI tumour cell line growth inhibition, 48 h
HCT-15 colon = system: HCT-15 colon
SK-MEL-2 melanoma = system: SK-MEL-2 melanoma
CAKI-1 renal = system: CAKI-1 renal
TK-10 renal = system: TK-10 renal
HOP-62 NSCLC = system: HOP-62 NSCLC
OVCAR-8 ovarian = system: OVCAR-8 ovarian
NCI-H23 lung = system: NCI-H23 lung
SF-268 CNS = system: SF-268 CNS
RPMI-8226 leukemia = system: RPMI-8226 leukemia
786-0 renal = system: 786-0 renal
SK-OV-3 ovarian = system: SK-OV-3 ovarian
SK-MEL-28 melanoma = system: SK-MEL-28 melanoma
HT29 colon = system: HT29 colon
OVCAR-3 ovarian = system: OVCAR-3 ovarian
DU-145 prostate = system: DU-145 prostate
HCC-2998 colon = system: HCC-2998 colon
CCRF-CEM leukemia = system: CCRF-CEM leukemia
MALME-3M melanoma = system: MALME-3M melanoma
ACHN renal = system: ACHN renal
SNB-75 CNS = system: SNB-75 CNS
COLO 205 colon = system: COLO 205 colon
BT-549 breast = system: BT-549 breast
NCI-H226 lung = system: NCI-H226 lung
SF-539 CNS = system: SF-539 CNS
SN12C renal = system: SN12C renal
OVCAR-5 ovarian = system: OVCAR-5 ovarian
HL-60(TB) leukemia = system: HL-60(TB) leukemia
PC-3 prostate = system: PC-3 prostate
SF-295 CNS = system: SF-295 CNS
MDA-MB-435 = system: MDA-MB-435
A549 NSCLC = system: A549 NSCLC
LOX IMVI melanoma = system: LOX IMVI melanoma
NCI/ADR-RES ovarian = system: NCI/ADR-RES ovarian
MOLT-4 leukemia = system: MOLT-4 leukemia
A498 renal = system: A498 renal
EKVX NSCLC = system: EKVX NSCLC
MDA-MB-231 breast = system: MDA-MB-231 breast
RXF 393 renal = system: RXF 393 renal
NCI-H522 lung = system: NCI-H522 lung
HOP-92 NSCLC = system: HOP-92 NSCLC
OVCAR-4 ovarian = system: OVCAR-4 ovarian
UO-31 renal = system: UO-31 renal
SK-MEL-5 melanoma = system: SK-MEL-5 melanoma
UACC-257 melanoma = system: UACC-257 melanoma
UACC-62 melanoma = system: UACC-62 melanoma
T-47D breast = system: T-47D breast
SW-620 colon = system: SW-620 colon
NCI-H460 lung = system: NCI-H460 lung
MCF7 breast = system: MCF7 breast
KM12 colon = system: KM12 colon
U251 CNS = system: U251 CNS
SNB-19 CNS = system: SNB-19 CNS
IGROV1 ovarian = system: IGROV1 ovarian
HS 578T breast = system: HS 578T breast

## CCCN1C/C(=C\c2ccc(O)c(OC)c2)C(=O)/C(=C/c2ccc(O)c(OC)c2)C1
HCT-15 colon
  GI50: > 100 µM
  TGI: > 100 µM
SK-MEL-2 melanoma
  GI50: > 100 µM
  TGI: > 100 µM
CAKI-1 renal
  GI50: > 100 µM
  TGI: > 100 µM
TK-10 renal
  GI50: > 100 µM
  TGI: > 100 µM
HOP-62 NSCLC
  GI50: > 100 µM
  TGI: > 100 µM
OVCAR-8 ovarian
  GI50: > 100 µM
  TGI: > 100 µM
NCI-H23 lung
  GI50: > 100 µM
  TGI: > 100 µM
SF-268 CNS
  GI50: > 100 µM
  TGI: > 100 µM
RPMI-8226 leukemia
  GI50: > 100 µM
  TGI: > 100 µM
786-0 renal
  GI50: > 100 µM
  TGI: > 100 µM
SK-OV-3 ovarian
  GI50: > 100 µM
  TGI: > 100 µM
SK-MEL-28 melanoma
  GI50: > 100 µM
  TGI: > 100 µM
HT29 colon
  GI50: > 100 µM
  TGI: > 100 µM
OVCAR-3 ovarian
  GI50: > 100 µM
  TGI: > 100 µM
DU-145 prostate
  GI50: > 100 µM
  TGI: > 100 µM
HCC-2998 colon
  GI50: > 100 µM
  TGI: > 100 µM
CCRF-CEM leukemia
  GI50: > 100 µM
  TGI: > 100 µM
MALME-3M melanoma
  GI50: > 100 µM
  TGI: > 100 µM
ACHN renal
  GI50: > 100 µM
  TGI: > 100 µM
SNB-75 CNS
  GI50: > 100 µM
  TGI: > 100 µM
COLO 205 colon
  GI50: > 100 µM
  TGI: > 100 µM
BT-549 breast
  GI50: > 100 µM
  TGI: > 100 µM
NCI-H226 lung
  GI50: > 100 µM
  TGI: > 100 µM
SF-539 CNS
  GI50: > 100 µM
  TGI: > 100 µM
SN12C renal
  GI50: > 100 µM
  TGI: > 100 µM
OVCAR-5 ovarian
  GI50: > 100 µM
  TGI: > 100 µM
HL-60(TB) leukemia
  GI50: > 100 µM
  TGI: > 100 µM
PC-3 prostate
  GI50: > 100 µM
  TGI: > 100 µM
SF-295 CNS
  GI50: > 100 µM
  TGI: > 100 µM
MDA-MB-435
  GI50: > 100 µM
  TGI: > 100 µM
A549 NSCLC
  GI50: > 100 µM
  TGI: > 100 µM
LOX IMVI melanoma
  GI50: > 100 µM
  TGI: > 100 µM
NCI/ADR-RES ovarian
  GI50: > 100 µM
  TGI: > 100 µM
MOLT-4 leukemia
  GI50: > 100 µM
  TGI: > 100 µM
A498 renal
  GI50: > 100 µM
  TGI: > 100 µM
EKVX NSCLC
  GI50: > 100 µM
  TGI: > 100 µM
MDA-MB-231 breast
  GI50: > 100 µM
  TGI: > 100 µM
RXF 393 renal
  GI50: > 100 µM
  TGI: > 100 µM
NCI-H522 lung
  GI50: > 100 µM
  TGI: > 100 µM
HOP-92 NSCLC
  GI50: > 100 µM
  TGI: > 100 µM
OVCAR-4 ovarian
  GI50: > 100 µM
  TGI: > 100 µM
UO-31 renal
  GI50: > 100 µM
  TGI: > 100 µM
SK-MEL-5 melanoma
  GI50: > 100 µM
  TGI: > 100 µM
UACC-257 melanoma
  GI50: > 100 µM
  TGI: > 100 µM
UACC-62 melanoma
  GI50: > 100 µM
  TGI: > 100 µM
T-47D breast
  GI50: > 100 µM
  TGI: > 100 µM
SW-620 colon
  GI50: > 100 µM
  TGI: > 100 µM
NCI-H460 lung
  GI50: > 100 µM
  TGI: > 100 µM
MCF7 breast
  GI50: > 100 µM
  TGI: > 100 µM
KM12 colon
  GI50: > 100 µM
  TGI: > 100 µM
U251 CNS
  GI50: > 100 µM
  TGI: > 100 µM
SNB-19 CNS
  GI50: > 100 µM
  TGI: > 100 µM
IGROV1 ovarian
  GI50: > 100 µM
  TGI: > 100 µM
HS 578T breast
  GI50: > 100 µM
  TGI: > 100 µM
